In patent US20100099756A1, “USES OF INCENSOLE, INCENSOLE ACETATE AND DERIVATIVES THEREOF” (YISSUM RESEARCH DEVELOPMENT COMPANY OF THE HEBREW …, priority 2006, published 2010):

How the values were obtained:
TRPV3 = target: T1, TRPV3 (Mus musculus, UniProt Q8K424); experiment: Calcium imaging of TRPV3+/+ and TRPV3−/− primary keratinocytes; assay type: cell-based; parameters: endogenous in cells; host or cells: primary keratinocytes from TRPV3+/+ mouse pups (day 1-4); TRPV3-/- cells as control; conditions: IA 500 μM
T1 sequence (Q8K424 1-791): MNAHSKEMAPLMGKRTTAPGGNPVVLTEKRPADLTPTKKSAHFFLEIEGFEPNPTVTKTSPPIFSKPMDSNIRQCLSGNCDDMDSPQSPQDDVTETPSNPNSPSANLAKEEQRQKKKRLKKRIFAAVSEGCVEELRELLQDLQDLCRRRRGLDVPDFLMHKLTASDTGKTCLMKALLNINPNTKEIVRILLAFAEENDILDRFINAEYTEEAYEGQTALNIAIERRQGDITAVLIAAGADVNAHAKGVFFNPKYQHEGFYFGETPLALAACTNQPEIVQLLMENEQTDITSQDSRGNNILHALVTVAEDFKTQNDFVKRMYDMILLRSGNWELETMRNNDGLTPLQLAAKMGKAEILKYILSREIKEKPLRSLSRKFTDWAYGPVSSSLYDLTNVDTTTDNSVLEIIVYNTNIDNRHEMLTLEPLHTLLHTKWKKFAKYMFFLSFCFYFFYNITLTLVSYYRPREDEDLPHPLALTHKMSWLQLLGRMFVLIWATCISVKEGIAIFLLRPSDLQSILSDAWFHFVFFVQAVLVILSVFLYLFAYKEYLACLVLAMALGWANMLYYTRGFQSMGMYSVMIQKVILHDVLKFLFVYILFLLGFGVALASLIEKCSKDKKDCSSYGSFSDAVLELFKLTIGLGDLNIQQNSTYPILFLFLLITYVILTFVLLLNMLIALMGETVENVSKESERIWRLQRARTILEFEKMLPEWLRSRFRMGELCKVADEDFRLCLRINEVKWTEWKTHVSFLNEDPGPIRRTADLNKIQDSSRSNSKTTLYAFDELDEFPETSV
Excerpt: HEK293 cells were transiently transfected with a rat TRPV2 plasmid using lipofectamine reagent (Invitrogen, Carlsbad, Calif.) according to manufacturer's protocol. They were then maintained in Dulbecco's modified Eagle Medium/10% fetal calf serum supplemented with Penicillin, Streptomycin, and L-glutamine. Primary keratinocytes from TRPV3-deficient and TRPV3+/+ mouse pups (day 1-4) were harvested and cultured as described previously [Chung, M. K., Lee, H., Mizuno, A., Suzuki, M. & Caterina, M. J. TRPV3 and TRPV4 mediate warmth-evoked currents in primary mouse keratinocytes. J. Biol. Chem. 279, 21569-21575 (2004)].
Calcium imaging of TRPV3^+/+ and TRPV3^−/− keratinocytes. Primary keratinocytes from TRPV3-deficient and WT mouse pups (day 1-4) were harvested and cultured as described [Chung, M. K., Lee, H., Mizuno, A., Suzuki, M. & Caterina, M. J. TRPV3 and TRPV4 mediate warmth-evoked currents in primary mouse keratinocytes. J. Biol. Chem. 279, 21569-21575 (2004)].
Cells were plated on glass coverslips (10^5/cm^2) and incubated for 48-60 h, then loaded with fura-2 AM (20 μM, 0.04% pleuronic acid, 32° C. for 1 h) in imaging buffer containing (in mM): 130 NaCl, 2.5 CaCl2, 0.6 MgCl2, 10 HEPES, 1.2 NaHCO3, 10 glucose, pH 7.45. Ratiometric Ca^2+ imaging was performed as previously described [O'dell, D. K., Rimmerman, N., Pickens, S. R. & Walker J. M. Fatty acyl amides of endogenous tetrahydroisoquinolines are active at the recombinant human TRPV1 receptor. Bioorg. Med. Chem. 15, 6164-6169 (2007)]. Drug was added to the bath following a period of baseline recording. Calcium measurements were made from 30 randomly selected cells per coverslip.
Data analysis of calcium imaging data. Analysis of calcium imaging data was done using a non-linear regression curve fit (Graphpad 4 Prism, San Diego, Calif.). t tests and one way ANOVA were calculated using SPSS (Chicago, Ill.). […] Averaged drug responses over 30 randomly selected cells per coverslip were analyzed with two-tailed unpaired t tests.

TRPV1 = TRPV1 (Homo sapiens, UniProt Q8NER1); experiment: Whole-cell voltage-clamp, TRPV1(+) cells; assay type: cell-based; conditions: IA 200 μM
TRPV1, sequence (Q8NER1 whole entry): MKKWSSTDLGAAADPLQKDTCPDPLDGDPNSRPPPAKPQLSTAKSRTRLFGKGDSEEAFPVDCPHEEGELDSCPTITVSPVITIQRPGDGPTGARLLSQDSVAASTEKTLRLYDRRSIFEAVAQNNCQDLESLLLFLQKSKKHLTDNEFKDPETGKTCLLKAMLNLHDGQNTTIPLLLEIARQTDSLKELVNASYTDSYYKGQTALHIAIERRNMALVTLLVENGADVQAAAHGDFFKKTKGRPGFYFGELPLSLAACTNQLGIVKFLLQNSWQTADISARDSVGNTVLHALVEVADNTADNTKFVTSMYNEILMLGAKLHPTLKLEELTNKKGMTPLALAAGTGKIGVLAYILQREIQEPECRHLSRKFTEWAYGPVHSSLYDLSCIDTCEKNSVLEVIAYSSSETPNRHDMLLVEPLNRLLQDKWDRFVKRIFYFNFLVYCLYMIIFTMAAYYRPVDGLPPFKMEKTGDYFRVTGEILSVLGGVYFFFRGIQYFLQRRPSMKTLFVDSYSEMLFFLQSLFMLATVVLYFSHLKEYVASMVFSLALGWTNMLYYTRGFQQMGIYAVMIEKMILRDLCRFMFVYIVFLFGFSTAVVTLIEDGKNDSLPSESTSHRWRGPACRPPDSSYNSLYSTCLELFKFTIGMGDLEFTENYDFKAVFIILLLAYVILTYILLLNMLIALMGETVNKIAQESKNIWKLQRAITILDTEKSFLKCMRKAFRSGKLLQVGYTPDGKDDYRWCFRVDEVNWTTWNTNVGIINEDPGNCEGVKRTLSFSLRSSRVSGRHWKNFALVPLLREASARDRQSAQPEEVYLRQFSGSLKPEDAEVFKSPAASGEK
Procedure: TRPV3(+) response to IA is shown for reference. *, p<0.001. Error bars represent SEM, n=4-5.
Electrophysiological recording. Currents were recorded using whole-cell voltage-clamp. Pipettes were pulled from microcapillary glass (A-M Systems). A coverslip containing cells was transferred to a 300 μL chamber that was constantly perfused (1-2 mL/min) with external solution. Voltage protocols were generated and data were digitized and recorded using Pulse (HEKA Elektronik) software in conjunction with an Axopatch 200A amplifier (Axon Instruments), and the data analyzed using an in-house Visual Basic (Microsoft) analysis program.
The pipette solution contained (in mM): 121.5 Kgluconate, 10 HEPES, 17 KCl, 9 NaCl, 1 MgCl2, 0.2 EGTA, 2 MgATP, and 0.5 NaATP, pH 7.2. The external solution contained (in mM): 120 NaCl, 5 KCl, 1 MgCl2, 2 CaCl2, 10 Glucose and 20 HEPES, pH 7.4 with NaOH. The measured charge (pC) was defined as the charge elicited between -85 and -45 mV by a ramping voltage stimulus (−85 mV to +35 mV, 0.54 mV/msec; holding potential -55 mV). Currents were sampled at 5 kHz. Experimental and control cells were alternated whenever possible. Control values were obtained from adjacent cells with no detectable YFP fluorescence, presumed to be non-TRPV3-expressing.

immobility = experiment: Porsolt forced swimming test; assay type: in vivo, female Sabra mice; conditions: recorded over 9 minutes, 50 mg/kg i.p.
closed head injury = experiment: Tissue edema formation (tissue water content) after CHI; assay type: in vivo, mice; conditions: left (ipsilateral) hemisphere, 24 h after injury; P=0.15 vs vehicle

CC(=O)OC1CC/C(C)=C/CC/C(C)=C/CC2(C(C)C)CCC1(C)O2 (centres unmarked) [IA, incensole acetate]
calcium influx in primary keratinocytes from TRPV3−/− mice (TRPV3): not from TRPV3 | calcium influx in primary keratinocytes from WT mice (TRPV3; camphor 10 mM): induced a calcium influx | current activation in TRPV1(+) cells (TRPV1): does not activate currents | immobility in the Porsolt forced-swim test (immobility): significantly reduced the immobility | tissue water content (closed head injury): 81.47±0.35%
